Data taken from PubChem BioAssay AID1259411 (Chemical Carcinogenesis Research Information System (CCRIS), 2018).
The source made the active and inactive calls. How the calls were made is not given here.

Tested on: rodent carcinogenicity bioassays, tumor incidence
Test: CCRIS carcinogenicity studies
How it was run: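 NCI-built, expert-reviewed records of carcinogenicity and related test outcomes (mutagenicity, tumor promotion/inhibition) compiled from published and report sources, historical span 1985-2011, not updated.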

## c1ccc2n[nH]nc2c1
Species: MOUSE, Strain/Sex: B6C3F1/FEMALE, Route: ORAL, Dose: 0, 11700, 23500 PPM IN DIET FOR 104 WK (STUDY DURATION: 106-109 WK), Dose: 0, 11700, 23500 PPM IN DIET FOR 104 WK (STUDY DURATION: 106-109 WK), Tumor Site: Type of Lesion: LUNG: ALVEOLAR/BRONCHIOLAR CARCINOMA
  carcinogen call: equivocal
Species: MOUSE, Strain/Sex: B6C3F1/MALE, Route: ORAL, Dose: 0, 11700, 23500 PPM IN DIET FOR 104 WK (STUDY DURATION: 106-109 WK), Dose: 0, 11700, 23500 PPM IN DIET FOR 104 WK (STUDY DURATION: 106-109 WK)
  carcinogen call: inactive; negative
Species: RAT, Strain/Sex: F344/FEMALE, Route: ORAL, Dose: 0, 6700, 12100 PPM IN DIET FOR 78 WK (STUDY DURATION: 105-106 WK), Dose: 0, 6700, 12100 PPM IN DIET FOR 78 WK (STUDY DURATION: 105-106 WK), Tumor Site: Type of Lesion: BRAIN: TUMOR
  carcinogen call: equivocal
Species: RAT, Strain/Sex: F344/MALE, Route: ORAL, Dose: 0, 6700, 12100 PPM IN DIET FOR 78 WK (STUDY DURATION: 105-106 WK), Dose: 0, 6700, 12100 PPM IN DIET FOR 78 WK (STUDY DURATION: 105-106 WK), Tumor Site: Type of Lesion: BRAIN: TUMOR
  carcinogen call: equivocal

## CC[N+]([O-])=NC
Species: RAT, Strain/Sex: F344/MALE, Route: ORAL, Dose: 0, 12, 48 MG/ML IN A NEUTRAL DEIONIZED DRINKING WATER SOLUTION 5 D/WK FOR 30 WK (TOTAL DOSE 36; 115 MG) (STUDY DURATION:, Dose: 0, 12, 48 MG/ML IN A NEUTRAL DEIONIZED DRINKING WATER SOLUTION 5 D/WK FOR 30 WK (TOTAL DOSE 36; 115 MG) (STUDY DURATION:, Tumor Site: Type of Lesion: LIVER: CARCINOMA, HEMANGIOSARCOMA, COLON: ADENOCARCINOMA, ADENOMA, ILEUM: TUMOR, Tumor Site: Type of Lesion: LIVER: CARCINOMA, HEMANGIOSARCOMA, COLON: ADENOCARCINOMA, ADENOMA, ILEUM: TUMOR
  carcinogen call: active; positive

## [Cl][Fe]([Cl])[Cl]
Species: RAT, Strain/Sex: F344/FEMALE, Route: ORAL, Dose: 0, 0.25, 0.5% IN DRINKING WATER FOR 104 WK (STUDY DURATION: 112 WK), Dose: 0, 0.25, 0.5% IN DRINKING WATER FOR 104 WK (STUDY DURATION: 112 WK)
  carcinogen call: inactive; negative
Species: RAT, Strain/Sex: F344/MALE, Route: ORAL, Dose: 0, 0.25, 0.5% IN DRINKING WATER FOR 104 WK (STUDY DURATION: 112 WK), Dose: 0, 0.25, 0.5% IN DRINKING WATER FOR 104 WK (STUDY DURATION: 112 WK)
  carcinogen call: inactive; negative

## CC(=O)O[C@]1(C(C)=O)CC[C@H]2[C@@H]3C=C(C)C4=CC(=O)CC[C@]4(C)[C@H]3CC[C@@]21C
Species: DOG, Route: ORAL, Tumor Site: Type of Lesion: MAMMARY GLAND
  carcinogen call: active; positive

## CCO[Si](CCC1CCC2OC2C1)(OCC)OCC (stereo unspecified)
Species: MOUSE, Strain/Sex: C3H/MALE, Route: DERMAL, Dose: 0, 2 MG IN ACETONE 3/WK FOR DURATION OF STUDY (STUDY DURATION: LIFETIME)
  carcinogen call: inactive; negative

## CC(=O)CN(C)N=O
Species: HAMSTER, Strain/Sex: SYRIAN/FEMALE, Route: GAVAGE, Dose: 0, 0.5 MG IN 0.1 ML WATER 2/WK FOR 22 WK FOR A TOTAL DOSE OF 22 MG (STUDY DURATION: 45 WK), Tumor Site: Type of Lesion: LIVER: HEMANGIOSARCOMA, CHOLANGIOCELLULAR CARCINOMA, CHOLANGIOCELLULAR ADENOMA, NASAL MUCOSA: CARCINOMA
  carcinogen call: active; positive
Species: HAMSTER, Strain/Sex: SYRIAN/FEMALE, Route: GAVAGE, Dose: 0, 1 MG IN 0.1 ML WATER 2/WK FOR 11 WK FOR A TOTAL DOSE OF 22 MG (STUDY DURATION: 45 WK), Tumor Site: Type of Lesion: LIVER: TUMOR, NASAL MUCOSA: CARCINOMA
  carcinogen call: active; positive
Species: HAMSTER, Strain/Sex: SYRIAN/FEMALE, Route: GAVAGE, Dose: 0, 2 MG IN 0.2 ML WATER 1/WK FOR 14 WK FOR A TOTAL DOSE OF 28 MG (STUDY DURATION: 17 WK), Tumor Site: Type of Lesion: LIVER: HEPATOCELLULAR ADENOMA, CHOLANGIOCELLULAR CARCINOMA OR ADENOMA, NASAL MUCOSA: CARCINOMA OR ADENOMA
  carcinogen call: active; positive
Species: RAT, Strain/Sex: F344/FEMALE, Route: GAVAGE, Dose: 0, 4 MG/WK FOR A TOTAL DOSE OF 0.5 MMOL (STUDY DURATION: 40 WK), Tumor Site: Type of Lesion: ESOPHAGUS: TUMOR
  carcinogen call: active; positive
Species: RAT, Strain/Sex: F344/MALE, Route: GAVAGE, Dose: 0, 2, 4, 10 MG/WK FOR A TOTAL DOSE OF 0.5, 0.5, 0.9 MMOL (STUDY DURATION: 70 WK), Dose: 0, 2, 4, 10 MG/WK FOR A TOTAL DOSE OF 0.5, 0.5, 0.9 MMOL (STUDY DURATION: 70 WK), Tumor Site: Type of Lesion: ESOPHAGUS: TUMOR
  carcinogen call: active; positive

## O=P1(NCCCl)OCCCN1CCCl (stereo unspecified)
Species: MOUSE, Strain/Sex: B6C3F1/FEMALE, Route: INTRAPERITONEAL, Dose: 0, 10, 20 MG/KG IN BUFFERED SALINE 3/WK FOR 52 WK (STUDY DURATION: 79-80 WK), Dose: 0, 10, 20 MG/KG IN BUFFERED SALINE 3/WK FOR 52 WK (STUDY DURATION: 79-80 WK), Tumor Site: Type of Lesion: LYMPHATIC SYSTEM: MALIGNANT LYMPHOMA
  carcinogen call: active; positive
Species: MOUSE, Strain/Sex: B6C3F1/MALE, Route: INTRAPERITONEAL, Dose: 0, 10, 20 MG/KG IN BUFFERED SALINE 3/WK FOR 52 WK (STUDY DURATION: 79-80 WK), Dose: 0, 10, 20 MG/KG IN BUFFERED SALINE 3/WK FOR 52 WK (STUDY DURATION: 79-80 WK)
  carcinogen call: inactive; negative
Species: MOUSE, Strain/Sex: STRAIN-A/MALE,FEMALE, Route: INTRAPERITONEAL, Dose: 0, 18.8, 47 MG/KG IN WATER 3/WK FOR 8 WK, Dose: 0, 18.8, 47 MG/KG IN WATER 3/WK FOR 8 WK, Tumor Site: Type of Lesion: LUNG
  carcinogen call: active; positive
Species: RAT, Strain/Sex: SPRAGUE-DAWLEY/FEMALE, Route: INTRAPERITONEAL, Dose: 0, 6, 12 MG/KG IN BUFFERED SALINE 3/WK FOR 52 WK (STUDY DURATION: 79-83 WK), Dose: 0, 6, 12 MG/KG IN BUFFERED SALINE 3/WK FOR 52 WK (STUDY DURATION: 79-83 WK), Tumor Site: Type of Lesion: MAMMARY GLAND: CYSTADENOMA OR CYSTADENOCARCINOMA, UTERUS: LEIOMYOSARCOMA;ADRENAL GLAND: CORTICAL ADENOMA, Tumor Site: Type of Lesion: MAMMARY GLAND: CYSTADENOMA OR CYSTADENOCARCINOMA, UTERUS: LEIOMYOSARCOMA;ADRENAL GLAND: CORTICAL ADENOMA
  carcinogen call: active; positive
Species: RAT, Strain/Sex: SPRAGUE-DAWLEY/MALE, Route: INTRAPERITONEAL, Dose: 0, 6, 12 MG/KG IN BUFFERED SALINE 3/WK FOR 52 WK (STUDY DURATION: 79-83 WK), Dose: 0, 6, 12 MG/KG IN BUFFERED SALINE 3/WK FOR 52 WK (STUDY DURATION: 79-83 WK)
  carcinogen call: inactive; negative

## Oc1ccc(O)c(-c2ccccc2)c1
Species: MOUSE, Strain/Sex: CD-1/FEMALE, Route: DERMAL, Dose: 0, 10 MG IN DMSO 5 D/WK FOR 40 WK (STUDY DURATION: 40 WK)
  carcinogen call: inactive; negative
Species: RAT, Strain/Sex: F344/FEMALE, Route: INTRAVESICULAR, Dose: 0, 1% IN 0.2 ML SALINE 2/WK FOR 5 WK (STUDY DURATION: 36 WK)
  carcinogen call: inactive; negative

## NCCCCCCCCCCC(=O)O
Species: MOUSE, Strain/Sex: B6C3F1/FEMALE, Route: ORAL, Dose: 0, 7500, 15000 PPM IN DIET FOR 103 WK (STUDY DURATION: 103 WK), Dose: 0, 7500, 15000 PPM IN DIET FOR 103 WK (STUDY DURATION: 103 WK)
  carcinogen call: inactive; negative
Species: MOUSE, Strain/Sex: B6C3F1/MALE, Route: ORAL, Dose: 0, 7500, 15000 PPM IN DIET FOR 103 WK (STUDY DURATION: 103 WK), Dose: 0, 7500, 15000 PPM IN DIET FOR 103 WK (STUDY DURATION: 103 WK), Tumor Site: Type of Lesion: HEMATOPOIETIC SYSTEM: MALIGNANT LYMPHOMA
  carcinogen call: equivocal
Species: RAT, Strain/Sex: F344/FEMALE, Route: ORAL, Dose: 0, 7500, 15000 PPM IN DIET FOR 104 WK (STUDY DURATION: 104 WK), Dose: 0, 7500, 15000 PPM IN DIET FOR 104 WK (STUDY DURATION: 104 WK)
  carcinogen call: inactive; negative
Species: RAT, Strain/Sex: F344/MALE, Route: ORAL, Dose: 0, 7500, 15000 PPM IN DIET FOR 104 WK (STUDY DURATION: 104 WK), Dose: 0, 7500, 15000 PPM IN DIET FOR 104 WK (STUDY DURATION: 104 WK), Tumor Site: Type of Lesion: LIVER: NEOPLASTIC NODULE, URINARY BLADDER: TRANSITIONAL CELL CARCINOMA
  carcinogen call: active; positive

## CN(CC(O)CO)N=O (stereo unspecified)
Species: HAMSTER, Strain/Sex: SYRIAN/FEMALE, Route: GAVAGE, Dose: 0, 2.4 MG IN 0.2 ML OF WATER 1/WK FOR 41 WK FOR A TOTAL DOSE OF 98 MG (STUDY DURATION: 45 WK), Tumor Site: Type of Lesion: NASAL MUCOSA: CARCINOMA, ADENOMA
  carcinogen call: active; positive
